Assay results: US5955421A, “Peptides containing D-2-alkyl-Tryptophan” (priority 1990, dated 1999)
Square brackets hold non-standard residues; d marks the D form. Peptide text beside a SMILES is read from it. dTrp(2-Me) = Cc1[nH]c2ccccc2c1C[C@@H](N)C(=O)O; Trp(2-Me) = Cc1[nH]c2ccccc2c1C[C@H](N)C(=O)O; GABA = NCCCC(=O)O

System: serum growth hormone and cortisol
Experiment: Oral capsule in healthy subjects, serum growth hormone and cortisol
Format: in vivo, human
Details: 20 mg capsule, 5 healthy subjects
Experimental: A capsule containing 20 mg of the peptide of Example 18 was orally administered to 5 healthy subjects (3 men and 2 women, ages 30 to 66) and serum growth hormone and cortisol levels were measured at various times after administration.

cortisol levels: without cortisol stimulation
Structure (SMILES): Cc1[nH]c2ccccc2c1C[C@H](NC(=O)[C@@H](Cc1c(C)[nH]c2ccccc12)NC(=O)[C@@H](Cc1c(C)[nH]c2ccccc12)NC(=O)CCCN)C(=O)N[C@@H](CCCCN)C(N)=O [Example 18, GAB-D-2-Mrp-D-2-Mrp-2-Mrp-Lys-NH2] (H-[GABA][dTrp(2-Me)][dTrp(2-Me)][Trp(2-Me)]K-NH2)
